Experiment [1] relates to 4T1-HER2 cells. The experiment can be described thus: Methylene blue staining for cell viability. It counts as cell-based, murine. The following applies: FIGS. 13C, 13D; individual components; 1 Gy of 80 kVp x-rays; UVADEX 10 uM 8-MOP equivalent, phosphor 25, 50, 100 μg/mL. An excerpt: Methylene blue staining of viable 4T1-HER2 cells confirms that the device works well according to the target parameters identified above. A plate having six (6) wells is subjected to treatment. […] One well (#1) is the control. One well (#2) has phosphor coated with EC and DLC (H100). One well (#3) has phosphor coated with EC (but no DLC). One well (#4) has drug UVADEX but no phosphors. One well (#5) has drug UVADEX and phosphors coated with EC and DLC. One well (#6) has drug UVADEX and phosphors coated with EC and no DLC.
All wells were exposed to the x-ray conditions noted above. […] One added benefit to a dual coating is redundancy in safety of the treatment.
(§1) Other assays were used to provide independent complimentary information on cell viability, e.g. Methylene blue staining and ATP-induced Luminescence imaging (Cell-Titer-Glo® Luminescence Cell Viability Assay). The luminescence imaging permitted investigation of the cytotoxicity of psoralen activated directly with a UV lamp, and in the absence of phosphors and x-ray radiation.
FIGS. 13A-13D illustrates the efficacy of treatment in-vitro in 4T1-HER2 cells, utilizing a regimen of 1/10-diluted UVADEX (with equivalent of 10 uM 8-MOP), 50 μg/mL phosphor 1 Gy of 80 kVp x-rays. FIG. 13A presents the cell viability data for three treatment conditions: UVADEX alone, phosphors alone, and the combination of UVADEX and phosphors. […]

The test system of experiment [2] is 4T1-HER2 cells. Put plainly: cell viability by Guava flow cytometry (forward scattering). It counts as cell-based, murine. The following applies: FIG. 13A; UVADEX alone, 10 μM 8-MOP equivalent; 1 Gy of 80 kVp; p=0.97. The protocol:
(§2) As part of the baseline study, in-vitro studies were conducted on plated cells following standard procedures. Cells were maintained in RPMI-1640 supplemented with 10% fetal bovine serum and L-glutamine from GIBCO (Grand Island, N.Y.) growing in a humidified atmosphere of 5% CO2. After incubation, cells were trypsinized and plated evenly onto twelve 12-well plates for 24 hours. About 20 minutes prior to irradiation, the 12 wells of each plate were exposed to the following combinations of additives: (1) control—cells only with no additives, (2) UVADEX only, (3) phosphors only, (4) UVADEX+ phosphors. Each plate had 12 wells with three wells for each of the four treatment arms. […]
(§3) Two primary flow cytometry analyses were used, both determined at 48 hours after treatment. […] The first analysis evaluated was metabolic cell viability (herein referred to as cell viability) calculated from the number of whole cells per well as determined using forward scattering (FSC). […]
(§4) FIGS. 13A-13D illustrates the efficacy of treatment in-vitro in 4T1-HER2 cells, utilizing a regimen of 1/10-diluted UVADEX (with equivalent of 10 uM 8-MOP), 50 μg/mL phosphor 1 Gy of 80 kVp x-rays. […] In FIG. 13A, cell viability after treatment (10 μM 8-MOP equivalent dilution of UVADEX, 50 μg/mL phosphor, 1 Gy of 80 kVp radiation) as determined by Guava flow cytome cytometry is depicted. […]
For orientation: A flow cytometer gives signals particle by particle.

Experiment [3] has as its system 4T1-HER2 cells. Put plainly: Annexin V positivity by flow cytometry. It counts as cell-based, murine. As to conditions: FIG. 13B; either with or without x-ray (p values of 0.90 and 0.09). The protocol: as §2, §3, §4
For experiment [4], the system named is CT2A (murine malignant glioma). The experiment can be described thus: Cell-Titer-Glo Luminescence Cell Viability Assay, UV activated psoralen. Type of experiment: cell-based. The following applies: FIG. 14A; psoralen 40 μM; UV light 0, 0.25, 0.5, 1.0 J/cm^2; N=4.
Excerpt: as §1
(§5) FIG. 14B presents data on CT2A malignant glioma cells, for a range of treatment parameters including variable x-ray dose (0, 0.67 and 1 Gy), phosphor concentration (50 or 100 μg) and psoralen concentration (8-MOP) at 10, 20 and 40 μM respectively. […] N=4 for each cell line at each UV light condition (0, 0.25, 0.5, 1.0 J/cm^2). The psoralen concentration was 40 μM. For FIG. 14B, in CT2A cells, the treatment cytotoxicity increases with X-ray dose (0, 0.67 and 1.00 Gy respectively), concentration of 8-MOP psoralen (10, 20 and 40 μM respectively), and phosphor (50 and 100 μg/ml) respectively (p values shown thereon).

The subject of the next experiment is 4T1. Described as above. It counts as cell-based, murine. As to conditions: FIG. 14A; psoralen 40 μM; UV light 0, 0.25, 0.5, 1.0 J/cm^2; N=4.
Excerpt: as §1, §5

Experiment [5] concerns KP-B (sarcoma) cell lines. The description is as above. It counts as cell-based, mice. The following applies: FIG. 14A; psoralen 40 μM; UV light 0, 0.25, 0.5, 1.0 J/cm^2; N=4.
Excerpt: The mouse breast cancer cell line 4T1 was purchased from ATCC. 4T1-HER2 was provided by Dr. Michael Kershaw (Cancer Immunology Program, Peter MacCallum Cancer Centre, Victoria, Australia) and maintained in DMEM with penicillin/streptomycin and 10% FBS The Sarcoma KP-B cell lines were derived from primary tumors LSL-Kras; p53 Flox/Flox mice (45).
as §1, §5

Here are results for 2 compounds from patent publication US10940329B2, “Phosphor-containing drug activator activatable by a Monte Carlo derived x-ray exposure, system containing the activator, and methods for use” (IMMUNOLIGHT, LLC, priority 2016, dated 2021).

Regarding `COc1c2occc2cc2ccc(=O)oc12` [UVADEX, 8-methoxypsoralen], in the experiment on 4T1-HER2 cells [1], the “cell viability by methyl blue staining” value is “little effect”. Besides, the “effect of addition of radiation on cell viability” value with 4T1-HER2 cells [2] is “no significant effect on cell viability”. For the same compound, in the experiment with 4T1-HER2 cells [3], the “apoptotic activity (Annexin V)” value is listed as “negligible apoptotic activity”.
As for `O=c1ccc2cc3ccoc3cc2o1` [psoralen], the viable cells result (in experiment [4]; in the experiment on 4T1; in experiment [5]) was “reduce viable cells” in each case.
